# According to patent US20210196724A1, “BIARYL COMPOSITIONS AND METHODS FOR MODULATING A KINASE CASCADE” (Athenex, Inc., priority 2016, published 2021):
# Columns and labels:
# [1] = Brain permeability (brain:plasma ratio); type: in vivo; conditions: read-out: Brain:Plasma (B:P) Average
# Protocol: Brain permeability can be measured by various methods known in the art. For example, brain permeability can be measured by calculating the ratio between the concentration of a compound of the application in the brain and the concentration of the compound in the plasma (i.e., BP ratio). In one aspect, a compound of the application has a B:P ratio of at least 1.0, 1.1, 1.2, 1.3, 1.4, 1.5, 1.6, 1.7, 1.8, 1.9, or 2.0 at 1 hour after administration of the compound to a subject. In one aspect, a compound of the application has a B:P ratio of at least 1.5, 1.6, 1.7, 1.8, 1.9, or 2.0 at 1 hour after administration of the compound to a subject. In one aspect, a compound of the application has a B:P ratio of at least 1.4, 1.5, 1.6, 1.7, 1.8, 1.9, 2.0, 2.1, 2.2, or 2.3 at 2 hours after administration of the compound to a subject. In one aspect, a compound of the application has a B:P ratio of at least 1.9, 2.0, 2.1, 2.2, or 2.3 at 2 hours after administration of the compound to a subject. In one aspect, a compound of the application has a B:P ratio of at least 1.7, 1.8, 1.9, 2.0, 2.1, 2.2, 2.3, 2.4, or 2.5 at 4 hours after administration of the compound to a subject. In one aspect, a compound of the application has a B:P ratio of at least 2.2, 2.3, 2.4, or 2.5 at 4 hours after administration of the compound to a subject.
# [2] = tested on: GL261 glioblastoma cells injected intra-cranially; experiment: GL261 murine model of glioblastoma (intra-cranial), survival; type: in vivo, C57BL/6 mice; conditions: orally once per day at 1 mg/kg for 45 days
# Protocol: The anti-tumor activity of Compound 121, as a single agent, was studied in the GL261 murine model of human glioblastoma. Murine GL261 glioblastoma cells were injected intra-cranially into syngeneic, immune-competent hosts (C57BL/6). In order for oral therapeutics to be effective, it is required that the therapeutic be able to cross the blood-brain barrier in order to achieve sufficient levels in the brain to exert an anti-tumor effect. Survival was the major endpoint for the study. The mice either succumbed to the tumor or were euthanized based on severity of tumor-dependent morbidity. Mice that achieved long-term survival (>80 days) were re-challenged with a sub-cutaneous injection of GL261 cells to assess the development of a durable immune response to GL261. Mice that underwent the re-challenge phase were not treated with Compound 121.
# GL261 cells (1×10^5 cells) were implanted into the brain of a C57BL/6 host using stereotactice injection. Compound 121 was dosed orally once per day at 1 mg/kg (N=10) for 45 days beginning 3 days post-tumor cell implantation. Compound Y was dosed orally once per day at 5 mg/kg (N=10) for 45 days beginning 3 days post-tumor implantation. A vehicle was administered to a control group of mice (N=10) per the same schedule.
# Mice were monitored for signs of tumor dependent morbidity, including head tilt, hunching, ataxia, and limb weakness. Mice were euthanized when cumulative signs of high tumor burden were evident.
# U87 cells = experiment: MTT cell growth inhibition (GI50), U87; type: cell-based, human; conditions: 3 days
# Protocol: The drug concentration required to block net cell growth by 50% relative to a control sample is measured as the GI50. The GI50s for several of the compounds of the application were assayed as described.
# MTT assay: U87 and GL261 cells were seeded in 96-well plate (6×10^3 cells in 100 μl of DMEM+10% FBS media per well) and incubated overnight at 37° C. with 5% CO2. All test compounds were diluted (10 point 2-fold serial dilution) in a separate 96-well plate to yield 10× of final concentrations (0.5-256 nM). A volume of 11 μl of 10× dilutions was added to appropriate wells (n=3). To value (reflecting the starting number of cells upon drug treatment) was determined by following steps as described below. After 3 days incubation at 37° C. with 5% CO2, 10 μl of MTT solution (5 mg/ml in PBS) was added to each well and plates were incubated at 37° C. for 3 h to allow MTT to form formazan crystals by reacting with metabolically active cells. 100 μl of 20% SDS was added to each well and plates were incubated overnight at 37° C. with 5% CO2. Afterward, OD570 was measured using microplate reader. The cell growth percentage of control was calculated according to percentage of control=(T−T0)/(C−T0)×100% or OD value of the test well exposure to test drug—OD value at time zero/(OD of the control well without drug treatment−OD value at time zero)×100%. Growth inhibition curves and GI50 were determined using GraphPad Prism 5 software.
# [3] = tested on: U87-luc human glioblastoma subcutaneous xenograft; experiment: U87-luc human glioblastoma subcutaneous xenograft tumor model; type: in vivo, athymic nude mice
# From the text: The anti-tumor activity of Compound 121, as a single agent, was studied in a U87-luc human glioblastoma subcutaneous xenograft tumor model. Significant endpoints were used to assess the treatment effects on subcutaneous tumor growth, as determined by tumor growth inhibition.
# Human glioblastoma U87 cells (1×10^6 cells) were implanted into the right flank of athymic nude mice via subcutaneous injection. Dosing was initiated when the average tumor size reached 90-100 mm^3, which was designated as Day 1.
# Compound 121 was dosed at 5 mg/kg once per day through Days 1-7 and dosed 2.5 mg/kg once per day through Days 15-21. A control group of mice (N=7) was administered a vehicle per the same schedule. Tumor volume was determined every 2 to 3 days via bidimensional caliper measurements. Body weight and general observations were recorded.
# The mice were euthanized once the tumor reached 2000 mm^3 in volume.
# Tumor growth inhibition (TGI) was calculated with the following formula:
# TGI=(1−(mean volume of treated tumors)/(mean volume of control tumors))×100.
# [4] = Pharmacokinetic properties after IV and PO administration; type: in vivo
# [5] = Day 12, orally dosed 5 mg/kg once per day Days 1-7
# [6] = in vivo, IV Administration (5 mg/kg)
smiles,measurement,setting,value
Cc1cc(N2CCOC[C@@H]2C)ccc1-c1ccc(CC(=O)NCc2ccc(F)cc2)nc1 [Compound 121],Kp at 0.25 h,[1]; time point 0.25 h,1.08
same,Kp at 0.5 h,[1]; time point 0.5 h,1.37
same,Kp at 1 h,[1]; time point 1 h,1.53
same,Kp at 2 h,[1]; time point 2 h,1.93
same,Kp at 4 h,[1]; time point 4 h,2.29
same,Kp at 6 h,[1]; time point 6 h,1.66
same,Kp at 8 h,[1]; time point 8 h,1.24
same,Survival compared to vehicle control,[2],significanly extended survival
same,Survival beyond 80 days (long term survival),[2]; N=10,2 of the 10
same,GI50,U87 cells,5.2 nM
same,Tumor growth (tumor volumes in individual mice over time),"[3]; 5 mg/kg once per day Days 1-7, 2.5 mg/kg once per day Days 15-21",repressed tumor growth
same,Mean tumor volume compared to the control group,"[3]; Day 12, P<0.05",significantly reduced
same,% TGI (tumor growth inhibition),[3]; [5],76.8%
same,Mean Tumor Volume ± SEM,[3]; [5],442.9 ± 67.2 mm3
same,Time to terminal sacrifice (based on tumor volume) compared to control,"[3]; P<0.05, 5 mg/kg Days 1-7, 2.5 mg/kg Days 15-21",significantly extended
same,AUCIV (dose-normalized),[4]; IV Administration (5 mg/kg),575 kg·ng·h/mL/mg
same,t0.5,[4]; IV Administration (5 mg/kg),0.959 h
same,F (%) = 100 × AUCpo/AUCIV,[4]; PO 20 mg/kg vs IV 5 mg/kg,34.8%
same,AUCPO (dose-normalized),[4]; PO Administration (20 mg/kg),199 kg·ng·h/mL/mg
same,C0,[4]; [6],2850 ng/mL
same,clearance,[4]; [6],29 mL/min/kg
same,Vd,"[4]; in vivo, IV Administration (5 mg/kg), read-out: Vss",2.24 L/kg
same,Cmax,"[4]; in vivo, PO Administration (20 mg/kg)",2170 ng/mL
